# How the values were obtained:
# [1] = target: T1, Prostaglandin G/H synthase 1 (Ovis aries, UniProt P05979)
# T1 sequence (P05979 whole entry): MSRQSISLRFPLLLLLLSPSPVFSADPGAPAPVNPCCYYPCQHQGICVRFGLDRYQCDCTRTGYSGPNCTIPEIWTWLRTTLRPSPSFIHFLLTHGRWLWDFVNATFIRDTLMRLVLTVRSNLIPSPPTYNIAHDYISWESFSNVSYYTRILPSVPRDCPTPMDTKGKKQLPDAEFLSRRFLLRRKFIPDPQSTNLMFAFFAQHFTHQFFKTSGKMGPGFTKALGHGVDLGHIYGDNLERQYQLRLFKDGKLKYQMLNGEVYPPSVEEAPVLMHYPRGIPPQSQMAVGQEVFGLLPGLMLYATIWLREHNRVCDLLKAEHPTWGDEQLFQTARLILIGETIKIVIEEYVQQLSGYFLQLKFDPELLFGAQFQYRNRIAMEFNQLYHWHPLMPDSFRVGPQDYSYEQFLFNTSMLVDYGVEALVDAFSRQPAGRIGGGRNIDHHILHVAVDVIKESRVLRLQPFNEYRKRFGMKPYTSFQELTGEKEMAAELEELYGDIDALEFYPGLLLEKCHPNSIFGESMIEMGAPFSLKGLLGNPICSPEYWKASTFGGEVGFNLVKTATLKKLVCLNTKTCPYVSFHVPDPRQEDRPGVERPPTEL
# Description: In vitro inhibition against ovine Prostaglandin G/H synthase 1
# [2] = target: T2, Prostaglandin G/H synthase 1 (Ovis aries) (UniProt P05979); test: In vitro selectivity ratio of Prostaglandin G/H synthase 1 to Prostaglandin G/H synthase 2
# T2 sequence (whole entry): T1 sequence (P05979 whole entry)
SMILES,IC50 [1],Ratio [2]
CC(C)c1cc(-c2ccccc2)c(-c2ccc(S(C)(=O)=O)cc2)c(=O)o1,341 µM,–
CC(C)Oc1cc(-c2ccccc2)c(-c2ccc(S(C)(=O)=O)cc2)c(=O)o1,4 µM,2
CCOc1cc(-c2ccccc2)c(-c2ccc(S(C)(=O)=O)cc2)c(=O)o1,281 µM,–
COc1cc(-c2ccccc2)c(-c2ccc(S(C)(=O)=O)cc2)c(=O)o1,14.7 µM,< 0.52

# The remaining lines, values ahead:
IC50 [1],Ratio [2],SMILES
8 µM,–,CCc1cc(-c2ccccc2)c(-c2ccc(S(C)(=O)=O)cc2)c(=O)o1
615 µM,–,Cc1cc(-c2ccccc2)c(-c2ccc(S(C)(=O)=O)cc2)c(=O)o1
386 µM,–,CCSc1cc(-c2ccccc2)c(-c2ccc(S(C)(=O)=O)cc2)c(=O)o1
> 100 µM,35.7,CSc1cc(-c2ccccc2)c(-c2ccc(S(C)(=O)=O)cc2)c(=O)o1
> 100 µM,–,CC(C)Sc1cc(-c2ccccc2)c(-c2ccc(S(C)(=O)=O)cc2)c(=O)o1
